Several values for one entry are separate records, joined by “and”; a condition that tells them apart may be missing. Identical values can stand only once.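 Following 48 hours of exposure in 96-well plates, responses at five concentrations were used to interpolate endpoints linearly. GI50 marks 50% less growth. TGI: total growth inhibition.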
Assays:
Assay in all cases: NCI tumour cell line growth inhibition, 48 h
[1] = tested on: ACHN renal
[2] = tested on: CAKI-1 renal
[3] = tested on: CCRF-CEM leukemia
[4] = tested on: DU-145 prostate
[5] = tested on: MDA-MB-231 breast
[6] = tested on: NCI/ADR-RES ovarian
[7] = tested on: OVCAR-5 ovarian
[8] = tested on: SF-268 CNS
[9] = tested on: A498 renal
[10] = tested on: NCI-H226 lung

Compound | TGI [1] | TGI [2] [µM] | TGI [3] | TGI [4] [µM] | TGI [5] [µM] | TGI [6] [µM] | TGI [7] | TGI [8] | TGI [9] | TGI [10] [µM] | GI50 [1] [µM] | GI50 [2] [µM] | GI50 [3] [µM] | GI50 [4] [µM] | GI50 [5] [µM] | GI50 [10] [µM] | GI50 [6] [µM] | GI50 [7] [µM] | GI50 [8] [µM] | GI50 [9] [µM]
CC(C)=Cc1cc(CCC/C(C)=C/Cc2c(O)cc(C)c(C(=O)O)c2O)co1 | > 100 µM | > 100 | > 100 µM | > 100 | > 100 | > 100 | > 100 µM | > 100 µM | – | – | – | – | – | – | – | – | – | – | – | –
NC(N)=NC(N)=Nc1ccc(C(=O)O)cc1 | > 100 µM | > 100 | > 100 µM | > 100 | > 100 | > 100 | > 100 µM | > 100 µM | > 100 µM | > 100 | – | – | – | – | – | – | – | – | – | –
CC1CCCC(C#N)(NOC2=NCCN2)C1 (stereo not given) | 46 µM | 79 | > 100 µM | > 100 | > 100 | > 100 | > 100 µM | > 100 µM | – | 37 | 18.9 | 22.7 | 53.8 | 24.1 | 19.4 | 17.2 | > 100 | > 100 | 60.3 | –
CC1=C(CO)C(=O)O[C@@H]([C@@H](C)[C@H]2CC[C@H]3[C@@H]4C[C@H]5O[C@]56[C@@H](O)C=CC(=O)[C@]6(C)[C@H]4CC[C@]23C)C1 | 2.02 µM | 0.773 | – | 0.91 | 1.77 | 11.2 | 2.64 µM | 1.29 µM | 1.53 µM | 2.86 | – | – | – | 0.294 | 0.491 | – | 0.821 | – | – | 0.408
Cc1ccc2oc(=O)c3c(O)c4cccc(OC5OC(C)C6O[C@@H](c7ccccc7)OC6C5OC5OC(C)C(O)C(O)C5O)c4c4oc(=O)c1c2c34 (stereo not given in full) | 1.14 µM and 0.439 µM | – | 0.365 µM and 0.363 µM | 1.27 | 1.35 | – | 1.13 µM and 2.7 µM | 1.59 µM and 1.71 µM | 1.22 µM and 0.95 µM | 0.211 | 0.0559 | 0.0415 | – | – | – | – | – | 0.218 | – | 0.167
C=CC1C(CC2OC(CO)C(O)C(O)C2O)OC=C2C(=O)OCCC21O (stereo not given) | > 100 µM | 78.7 | 28.9 µM | 62.6 | 99.6 | > 100 | 44.5 µM | 89 µM | – | 76.5 | 29.8 | 30.6 | 5.32 | 13.8 | 40.9 | 20.9 | 24 | 14.4 | 24.3 | –
CCOC(=O)c1c(-c2ccccc2)[n+](=O)c2cc(F)c(F)cc2n1[O-] | 2.8 µM | 3.12 | – | 3.55 | – | 2.66 | 4.13 µM | 4.07 µM | 17 µM | 6.92 | 1.38 | 1.61 | – | 1.78 | – | 2.73 | 0.924 | 2.23 | 1.66 | 5.02
COc1cc(C2c3cc4c(cc3OC(O)C2C)OCO4)cc(OC)c1OC (stereo not given) | > 88.1 µM | 37.4 | – | > 100 | 17.4 | 0.504 | > 100 µM | > 58.9 µM | 50.2 µM | 7.33 | – | – | – | – | – | – | – | – | – | –
COc1ccc(Nc2ncnc3ccc(-c4cncc(NS(C)(=O)=O)c4)cc23)cc1Cl | > 100 µM | – | 10 µM | 15.2 | 15.3 | 81.5 | 29 µM | 16.4 µM | 4.44 µM | 18.1 | 4.92 | – | 0.896 | 3.78 | 2.71 | 2.69 | 21.4 | 2.87 | 2.3 | 1.8
C1CSC[C@H]2COC[C@@H](CSCCS1)S2 | – | – | > 100 µM | > 100 | > 100 | > 100 | > 100 µM | > 100 µM | – | – | – | – | – | – | – | – | – | – | – | –
COC1=C(OC)C(=O)C(C/C=C(\C)CC/C=C(\C)CC/C=C(\C)CC/C=C(\C)CC/C=C(\C)CC/C=C(\C)CC/C=C(\C)CC/C=C(\C)CC/C=C(\C)CCC=C(C)C)=C(C)C1=O | > 100 µM | > 100 | > 100 µM | > 100 | > 100 | > 100 | > 100 µM | > 100 µM | – | > 100 | > 100 | > 100 | > 100 | > 100 | > 100 | > 100 | > 100 | > 100 | > 100 | –
N#C/C(=C/N1CCN(C(=O)c2ccco2)C1=S)C(=O)Nc1ccc(Cl)cc1 | 42.2 µM | > 50 | > 50 µM | > 50 | > 50 | > 50 | – | 41 µM | – | – | 15.3 | 13.2 | 22.5 | 15.9 | 18.4 | – | 28.1 | – | 17.8 | –
COc1cc2c(cc1OC)C(C(CBr)CBr)N(C1CCCC1)CC2 (stereo not given) | > 100 µM | > 100 | > 100 µM | – | – | – | > 100 µM | > 100 µM | > 100 µM | > 100 | – | – | – | – | – | – | – | – | – | –
CC12OC(C(=O)C13CC3)C1C(=O)c3c(O)ccc(O)c3C(=O)C12 (stereo not given) | 15.2 µM | 17.9 | – | – | 46.6 | 66.8 | 43.8 µM | 45.8 µM | – | – | 3.54 | 4.68 | – | – | 24.6 | – | 20.1 | 19.4 | 15.1 | –
O=C(c1ccccc1)c1nnn(Cc2ccccc2Cn2nnc(C(=O)c3ccccc3)c2C(=O)c2ccccc2)c1C(=O)c1ccccc1 | > 100 µM | > 100 | > 100 µM | – | – | – | > 100 µM | > 100 µM | > 100 µM | > 100 | – | – | – | – | – | – | – | – | – | –
CC(C)C1(NC(=O)C2CC3c4cccc5[nH]cc(c45)CC3N(C)C2)OC2(O)C3CCCN3C(=O)C(Cc3ccccc3)N2C1=O (stereo not given) | > 100 µM | > 100 | > 100 µM | > 100 | 56.7 | > 100 | > 100 µM | > 100 µM | – | – | – | – | – | – | – | – | – | – | – | –
COC(=O)c1onc(C2OC(C)(C)OC2C(O)COC(c2ccccc2)(c2ccccc2)c2ccccc2)c1C(=O)OC (stereo not given) | > 100 µM | – | > 100 µM | > 100 | > 100 | – | > 100 µM | > 100 µM | > 100 µM | > 100 | – | – | – | – | – | – | – | – | – | –
CCc1ccc2oc(=O)ccc2c1 | > 100 µM | > 100 | > 100 µM | – | – | > 100 | > 100 µM | > 100 µM | > 100 µM | > 100 | – | – | – | – | – | – | – | – | – | –

From PubChem BioAssay (NCI)
